Reference: patent publication US20250171437A1 (Agios Pharmaceuticals,Inc., priority 2022, published 2025)

target: T1, human PAH with the R408W mutation (A375 R408W cells) (Homo sapiens, UniProt P00439, R408W); assay: Cell Based Phenylalanine Flux Assay; conditions: A375 R408W cells; 24 hrs with compound, then 20 μM sepiapterin and 800 μM 13C9,15N-Phenylalanine for 4 hours; 13C-Tyrosine by LC-MS; average where tested multiple times
T1 construct: expressed in transfected cells
T1 sequence (P00439 1-452 R408W): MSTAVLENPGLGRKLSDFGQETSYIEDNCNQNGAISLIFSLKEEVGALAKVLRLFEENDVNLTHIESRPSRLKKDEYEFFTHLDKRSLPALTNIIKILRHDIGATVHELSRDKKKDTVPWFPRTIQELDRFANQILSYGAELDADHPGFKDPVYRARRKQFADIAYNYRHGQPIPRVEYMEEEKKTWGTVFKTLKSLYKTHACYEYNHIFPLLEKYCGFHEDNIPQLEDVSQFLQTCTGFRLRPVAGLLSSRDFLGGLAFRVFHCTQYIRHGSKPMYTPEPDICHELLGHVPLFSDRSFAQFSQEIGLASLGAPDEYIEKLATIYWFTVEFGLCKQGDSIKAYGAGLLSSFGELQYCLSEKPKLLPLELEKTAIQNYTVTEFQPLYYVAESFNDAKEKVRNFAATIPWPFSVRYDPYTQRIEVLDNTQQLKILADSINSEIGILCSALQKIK
Method in brief: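 A375 cells stably expressing lentiviral human PAH R408W were treated with compounds (10-point 2-fold dilutions, 0.5% DMSO, duplicate) for 24 h at 37 °C. Then 20 μM sepiapterin and 800 μM 13C9,15N-Phe were added for 4 h; media 13C-Tyr was measured by LC-MS to give AC50.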

`Cc1cc(C(=O)N2CCc3[nH]cnc3[C@@H]2c2nc3cccc(C)c3o2)n(C)n1` [Example 782, (R)-(1,3-dimethyl-1H-pyrazol-5-yl)(4-(7-methylbenzo[d]oxazol-2-yl)-6,7-dihydro-1H-imidazo[4,5-c]pyridin-5(4H)-yl)methanone] and `Cn1nc(Cl)nc1C(=O)N1CCc2[nH]cnc2[C@H]1c1nc2cccc(F)c2o1` [Example 283, (S)-(3-chloro-1-methyl-1H-1,2,4-triazol-5-yl)(4-(7-fluorobenzo[d]oxazol-2-yl)-6,7-dihydro-1H-imidazo[4,5-c]pyridin-5(4H)-yl)methanone] cannot be ordered by AC50: 0.5 to 1 µM for the first, at most 0.5 µM for the second.

`Cn1cc(-c2nc(C(F)F)c(C(=O)N3CCc4[nH]cnc4[C@@H]3c3nc4cccc(F)c4o3)o2)cn1` [Example 635, (R)-(4-(difluoromethyl)-2-(1-methyl-1H-pyrazol-4-yl)oxazol-5-yl)(4-(7-fluorobenzo[d]oxazol-2-yl)-6,7-dihydro-1H-imidazo[4,5-c]pyridin-5(4H)-yl)methanone] and `Cn1ccc(-c2nc(C(F)F)c(C(=O)N3CCc4[nH]cnc4[C@H]3c3nc4cccc(F)c4o3)o2)n1` [Example 591, (S)-(4-(difluoromethyl)-2-(1-methyl-1H-pyrazol-3-yl)oxazol-5-yl)(4-(7-fluorobenzo[d]oxazol-2-yl)-6,7-dihydro-1H-imidazo[4,5-c]pyridin-5(4H)-yl)methanone] cannot be ordered by AC50: 0.5 to 1 µM for the first, at most 0.5 µM for the second.

First: CC(C)(O)c1nc(C(F)F)c(C(=O)N2CCc3[nH]cnc3[C@H]2c2nc3cc(Br)cc(F)c3o2)o1 [Example 571, (S)-(4-(5-bromo-7-fluorobenzo[d]oxazol-2-yl)-6,7-dihydro-1H-imidazo[4,5-c]pyridin-5(4H)-yl)(4-(difluoromethyl)-2-(2-hydroxypropan-2-yl)oxazol-5-yl)methanone]
Second: Cc1ccc(F)c2nc([C@H]3c4nc[nH]c4CCN3C(=O)c3oc(C(C)(C)O)nc3C(F)F)oc12 [Example 724, (R)-(4-(difluoromethyl)-2-(2-hydroxypropan-2-yl)oxazol-5-yl)(4-(4-fluoro-7-methylbenzo[d]oxazol-2-yl)-6,7-dihydro-1H-imidazo[4,5-c]pyridin-5(4H)-yl)methanone]
The AC50 of the first is lower: at most 0.5 µM for the first, 1 to 5 µM for the second.

First: Cn1cc(-c2nnc(C(=O)N3CCc4[nH]cnc4[C@@H]3c3nc4cccc(C(F)(F)F)c4o3)o2)cn1 [Example 829, (R)-(5-(1-methyl-1H-pyrazol-4-yl)-1,3,4-oxadiazol-2-yl)(4-(7-(trifluoromethyl)benzo[d]oxazol-2-yl)-6,7-dihydro-1H-imidazo[4,5-c]pyridin-5(4H)-yl)methanone]
Second: O=C(c1nnc(-c2cnn(C(F)F)c2)o1)N1CCc2[nH]cnc2[C@@H]1c1nc2c(F)ccc(F)c2o1 [Example 802, (R)-(4-(4,7-difluorobenzo[d]oxazol-2-yl)-6,7-dihydro-1H-imidazo[4,5-c]pyridin-5(4H)-yl)(5-(1-(difluoromethyl)-1H-pyrazol-4-yl)-1,3,4-oxadiazol-2-yl)methanone]
The AC50 of the first is higher: 1 to 5 µM for the first, 0.5 to 1 µM for the second.

Compared with `CN1CCN(c2ccc3c(C(=O)N4CCc5[nH]cnc5[C@H]4c4nc5cccc(F)c5o4)cnn3c2)CC1` [Example 363, (S)-(4-(7-fluorobenzo[d]oxazol-2-yl)-6,7-dihydro-1H-imidazo[4,5-c]pyridin-5(4H)-yl)(6-(4-methylpiperazin-1-yl)pyrazolo[1,5-a]pyridin-3-yl)methanone], `O=C(c1cnn2cc(N3CCC(O)CC3)ccc12)N1CCc2[nH]cnc2[C@@H]1c1nc2cccc(F)c2o1` [Example 372, (R)-(4-(7-fluorobenzo[d]oxazol-2-yl)-6,7-dihydro-1H-imidazo[4,5-c]pyridin-5(4H)-yl)(6-(4-hydroxypiperidin-1-yl)pyrazolo[1,5-a]pyridin-3-yl)methanone] is higher in AC50: at most 0.5 µM for the first, 1 to 5 µM for the second.

Compared with `O=C(c1ocnc1C(F)F)N1CCc2[nH]cnc2[C@@H]1c1nc2ccc(F)c(F)c2o1` [Example 306, (R)-(4-(6,7-difluorobenzo[d]oxazol-2-yl)-6,7-dihydro-1H-imidazo[4,5-c]pyridin-5(4H)-yl)(4-(difluoromethyl)oxazol-5-yl)methanone], `O=C(c1ocnc1CC(F)F)N1CCc2[nH]cnc2[C@H]1c1nc2cccc(F)c2o1` [Example 863, (S)-(4-(2,2-difluoroethyl)oxazol-5-yl)(4-(7-fluorobenzo[d]oxazol-2-yl)-6,7-dihydro-1H-imidazo[4,5-c]pyridin-5(4H)-yl)methanone] is lower in AC50: 1 to 5 µM for the first, at most 0.5 µM for the second.

`O=C(c1cnc(-c2ccccn2)o1)N1CCc2[nH]cnc2[C@@H]1c1nc2ccc(Br)cc2o1` [Example 8, (R)-(4-(6-bromobenzo[d]oxazol-2-yl)-6,7-dihydro-1H-imidazo[4,5-c]pyridin-5(4H)-yl)(2-(pyridin-2-yl)oxazol-5-yl)methanone] and `O=C(c1cnn(-c2ccccn2)c1)N1CCc2[nH]cnc2[C@H]1c1nc2cc(F)ccc2o1` [Example 879, (S)-(4-(5-fluorobenzo[d]oxazol-2-yl)-6,7-dihydro-1H-imidazo[4,5-c]pyridin-5(4H)-yl)(1-(pyridin-2-yl)-1H-pyrazol-4-yl)methanone] fall in the same range of AC50: 1 to 5 µM for the first, 1 to 5 µM for the second.

Compared with `Cn1ccc(-c2nc(C(F)(F)F)c(C(=O)N3CCc4[nH]cnc4[C@H]3c3nc4cc(F)ccc4o3)o2)n1` [Example 787, (S)-(4-(5-fluorobenzo[d]oxazol-2-yl)-6,7-dihydro-1H-imidazo[4,5-c]pyridin-5(4H)-yl)(2-(1-methyl-1H-pyrazol-3-yl)-4-(trifluoromethyl)oxazol-5-yl)methanone], `Cn1cncc1-c1nc(C(F)(F)F)c(C(=O)N2CCc3[nH]cnc3[C@@H]2c2nc3cc(F)ccc3o2)o1` [Example 792, (R)-(4-(5-fluorobenzo[d]oxazol-2-yl)-6,7-dihydro-1H-imidazo[4,5-c]pyridin-5(4H)-yl)(2-(1-methyl-1H-imidazol-5-yl)-4-(trifluoromethyl)oxazol-5-yl)methanone] is higher in AC50: at most 0.5 µM for the first, 1 to 5 µM for the second.

`O=C(c1oc(-c2ccncc2)nc1C(F)F)N1CCc2[nH]cnc2[C@H]1c1nc2cc(F)ccc2o1` [Example 421, (S)-(4-(difluoromethyl)-2-(pyridin-4-yl)oxazol-5-yl)(4-(5-fluorobenzo[d]oxazol-2-yl)-6,7-dihydro-1H-imidazo[4,5-c]pyridin-5(4H)-yl)methanone] and `CC(C)(O)c1nc(C(F)F)c(C(=O)N2CCc3[nH]cnc3[C@H]2c2nc3cccc(Cl)c3o2)o1` [Example 423, (S)-(4-(7-chlorobenzo[d]oxazol-2-yl)-6,7-dihydro-1H-imidazo[4,5-c]pyridin-5(4H)-yl)(4-(difluoromethyl)-2-(2-hydroxypropan-2-yl)oxazol-5-yl)methanone] cannot be ordered by AC50: at most 0.5 µM for the first, at most 0.5 µM for the second.

First: Cc1ccc2oc([C@@H]3c4nc[nH]c4CCN3C(=O)c3nnc(-c4cn[nH]c4)o3)nc2c1 [Example 491, (S)-(5-(1H-pyrazol-4-yl)-1,3,4-oxadiazol-2-yl)(4-(5-methylbenzo[d]oxazol-2-yl)-6,7-dihydro-1H-imidazo[4,5-c]pyridin-5(4H)-yl)methanone]
Second: O=C(c1cnco1)N1CCc2[nH]cnc2[C@@H]1c1nc2cccc(F)c2o1 [Example 282, (R)-(4-(7-fluorobenzo[d]oxazol-2-yl)-6,7-dihydro-1H-imidazo[4,5-c]pyridin-5(4H)-yl)(oxazol-5-yl)methanone]
The AC50 of the first is lower: 0.5 to 1 µM for the first, 1 to 5 µM for the second.

`CN1CCN(c2nc(C(F)F)c(C(=O)N3CCc4[nH]cnc4[C@H]3c3nc4cccc(F)c4o3)o2)CC1` [Example 617, (S)-(4-(difluoromethyl)-2-(4-methylpiperazin-1-yl)oxazol-5-yl)(4-(7-fluorobenzo[d]oxazol-2-yl)-6,7-dihydro-1H-imidazo[4,5-c]pyridin-5(4H)-yl)methanone] and `O=C(c1ocnc1C(F)(F)F)N1CCc2[nH]cnc2[C@H]1c1nc2cccc(F)c2o1` [Example 171, (S)-(4-(7-fluorobenzo[d]oxazol-2-yl)-6,7-dihydro-1H-imidazo[4,5-c]pyridin-5(4H)-yl)(4-(trifluoromethyl)oxazol-5-yl)methanone] cannot be ordered by AC50: at most 0.5 µM for the first, at most 0.5 µM for the second.

same assay, conditions: A375 cells expressing R408W PAH; 24 hrs with compound, then 20 μM sepiapterin and 800 μM 13C9,15N-Phenylalanine for 4 hours; 13C-Tyrosine by LC-MS; average where tested multiple times

`CC(C)(O)c1cc(C(=O)N2CCc3[nH]cnc3C2c2nc3ccc(F)cc3o2)no1` (centres unmarked) and `CC(C)(O)c1ncc(C(=O)N2CCc3[nH]cnc3C2c2nc3cc(F)ccc3o2)o1` (centres unmarked) fall in the same range of AC50: 1 to 5 µM for the first, 1 to 5 µM for the second.

`COCc1nnc(C(=O)N2CCc3[nH]cnc3C2c2nc3cc(F)ccc3o2)o1` (centres unmarked) and `Cc1ccc2oc(C3c4nc[nH]c4CCN3C(=O)c3nnc(C)o3)nc2c1` (centres unmarked) fall in the same range of AC50: 1 to 5 µM for the first, 1 to 5 µM for the second.

`Cn1nc(C(C)(C)C)cc1C(=O)N1CCc2[nH]cnc2C1c1nc2ccccc2o1` (centres unmarked) and `Cn1nc(C(C)(C)C)nc1C(=O)N1CCc2[nH]cnc2C1c1nc2cccc(F)c2o1` (centres unmarked) cannot be ordered by AC50: at least 5 µM for the first, 1 to 5 µM for the second.

`O=C(C1CN(c2ccccn2)C1)N1CCc2[nH]cnc2C1c1nc2cc(F)ccc2o1` (centres unmarked) and `Cn1nc(N)cc1C(=O)N1CCc2[nH]cnc2C1c1nc2cc(F)ccc2o1` (centres unmarked) cannot be ordered by AC50: 1 to 5 µM for the first, at least 5 µM for the second.

`Cn1cnc(-c2nnc(C(=O)N3CCc4[nH]cnc4C3c3nc4cc(F)ccc4o3)o2)c1` (centres unmarked) and `Cn1nc(C(F)F)nc1C(=O)N1CCc2[nH]cnc2C1c1nc2ccc(F)c(F)c2o1` (centres unmarked) fall in the same range of AC50: 1 to 5 µM for the first, 1 to 5 µM for the second.
